Values joined by “and” are separate entries in the source; they are usually repeats but may differ in a detail not shown here. Equal values may be shown once. Where a SMILES comes first, the peptide text is derived from it. [ ]: non-standard residue; d: D form. Hyp = O=C(O)[C@@H]1C[C@@H](O)CN1
Tests used:
CCL4/MIP-1 beta = assay: Example 9 Luminex, LPS hPBMCs: CCL4/MIP-1 beta; type: cell-based, human; conditions: PBMC without LPS; for MFI (Bead name: CCL4/MIP-1 beta): dilution 10
Description: (§1) Treatment Human PBMCs were pretreated with YY-101, YDE-011 and YDE-043 or reference compound; Xiidra® at various concentration (ranging from 1 nM to 100 uM) for 2 h before stimulation. An equal volume of 0.5% DMSO was used as a vehicle control. Then, the cells were treated with LPS at 5 ug/ml. The supernatants from treated cells were harvested at 24 h and placed in a 96 well for Luminex cytokine & chemokine profiling using a Luminex 200 multiplex assay (Luminex; R&D system, USA).
(§2) The main study arm with triplicate wells per group in a 24-well plate: • 1. Blank • 2. PBMC: 0.5% DMSO • 3. PBMC+LPS (5 ug/ml) • 4. PBMC+YY-101 100 uM • 5. PBMC+YY-101 10 uM • 6. PBMC+YY-101 1 uM • 7. PBMC+YY-101 0.1 uM • 8. PBMC+YY-101 0.01 uM • 9. PBMC+LPS (5 ug/ml)+Xiidra®100 uM • 10. PBMC+LPS (5 ug/ml)+Xiidra® 10 uM • 11. PBMC+LPS (5 ug/ml)+Xiidra® 1 uM • 12. PBMC+LPS (5 ug/ml)+Xiidra®0.1 uM • 13. PBMC+LPS (5 ug/ml)+Xiidra®0.01 uM • 14. PBMC+LPS (5 ug/ml)+Xiidra®0.001 uM • 15. PBMC+LPS (5 ug/ml)+YY-101 100 uM • 16. PBMC+LPS (5 ug/ml)+YY-101 10 uM • 17. PBMC+LPS (5 ug/ml)+YY-101 1 uM • 18. PBMC+LPS (5 ug/ml)+YY-101 0.1 uM • 19. PBMC+LPS (5 ug/ml)+YY-101 0.01 uM • 20. PBMC+LPS (5 ug/ml)+YY-101 0.001 uM • 21. PBMC+LPS (5 ug/ml)+YDE-011 100 uM • 22. PBMC+LPS (5 ug/ml)+YDE-011 10 uM • 23. PBMC+LPS (5 ug/ml)+YDE-011 1 uM • 24. PBMC+LPS (5 ug/ml)+YDE-011 0.1 uM • 25. PBMC+LPS (5 ug/ml)+YDE-011 0.01 uM • 26. PBMC+LPS (5 ug/ml)+YDE-011 0.001 uM • 27. PBMC+LPS (5 ug/ml)+YDE-043 100 uM • 28. PBMC+LPS (5 ug/ml)+YDE-043 10 uM • 29. PBMC+LPS (5 ug/ml)+YDE-043 1 uM • 30. PBMC+LPS (5 ug/ml)+YDE-043 0.1 uM • 31. PBMC+LPS (5 ug/ml)+YDE-043 0.01 uM • 32. PBMC+LPS (5 ug/ml)+YDE-043 0.001 uM
(§3) Multiplex assay was used to measure 30 cytokines and chemokines. The 1:2, 1:10 and 1:200 diluted cell supernatant and serial dilution of the standard were dispensed into a 96 well plate at 50 ul/well. Then, the pre-mixed cocktail of antibody-coated magnetic beads was dispensed at 50 ul/well and incubated at room temperature for 2 h in a horizontal orbital microplate shaker at 800±500 rpm. The beads were washed using a magnetic device to prevent loss. The biotin-antibody was dispensed in 50 ul of each well and incubated at room temperature for 1 h in a shaker at 800±500 rpm. After washing, streptavidin-PE was added at 50 ul/well and incubated at room temperature for 30 min in a shaker under the same conditions. Finally, after washing, wash buffer (100 ul/well) was added to the plate and incubated in a shaker for 2 min. The Luminex™ 200 setting were set according to the manufacturer's protocol. The data was calculated with a standard five-parameter logistic nonlinear regression analysis of the data (xPonent software 4.2, USA). The levels of cytokine/chemokine are normalized to the live cell counts (1×10^5 cells/mL) and presented as concentrations per mL (pg/mL or ng/mL).

CCL2/JE/MCP-1 = assay: Example 9 Luminex, LPS hPBMCs: CCL2/JE/MCP-1; type: cell-based, human
Description: as §1, §2, §3

[1] = test article 10 uM, single replicates
[2] = test article 100 uM, single replicates
[3] = PBMC + LPS(5 ug/ml) + test article 0.001 uM, Mean
[4] = PBMC + LPS(5 ug/ml) + test article 0.001 uM, individual replicates
[5] = PBMC + LPS(5 ug/ml) + test article 0.01 uM, Mean
[6] = PBMC + LPS(5 ug/ml) + test article 0.01 uM, individual replicates
[7] = PBMC + LPS(5 ug/ml) + test article 0.1 uM, Mean
[8] = PBMC + LPS(5 ug/ml) + test article 0.1 uM, individual replicates
[9] = PBMC + LPS(5 ug/ml) + test article 1 uM, Mean
[10] = PBMC + LPS(5 ug/ml) + test article 1 uM, individual replicates
[11] = PBMC + LPS(5 ug/ml) + test article 10 uM, Mean
[12] = PBMC + LPS(5 ug/ml) + test article 10 uM, individual replicates
[13] = PBMC + LPS(5 ug/ml) + test article 100 uM, Mean
[14] = PBMC + LPS(5 ug/ml) + test article 100 uM, individual replicates
[15] = PBMC + test article 0.01 uM, no LPS, Mean
[16] = PBMC + test article 0.01 uM, no LPS, individual replicates
[17] = PBMC + test article 0.1 uM, no LPS, Mean
[18] = PBMC + test article 0.1 uM, no LPS, individual replicates
[19] = PBMC + test article 1 uM, no LPS, Mean
[20] = PBMC + test article 1 uM, no LPS, individual replicates
[21] = PBMC + test article 10 uM, no LPS, Mean
[22] = PBMC + test article 10 uM, no LPS, individual replicates
[23] = PBMC + test article 100 uM, no LPS, Mean
[24] = PBMC + test article 100 uM, no LPS, individual replicates

In the case of CC(C)C[C@H](NC(=O)CNC(=O)[C@H](CC(=O)O)NC(=O)[C@H](CCC(N)=O)NC(=O)CNC(=O)[C@@H]1C[C@@H](O)CN1)C(=O)N[C@@H](C)C(=O)NCC(=O)N1CCC[C@H]1C(=O)N[C@@H](CCCCN)C(=O)O [YY-101] (H-[Hyp]GQDGLAGPK-OH; N-terminus and C-terminus assumed), the “MFI (Bead name: CCL4/MIP-1 beta)” value (CCL4/MIP-1 beta; [1]) is reported as 10.0 and 1.0, the “Concentration (CCL4/MIP-1 beta)” value (CCL4/MIP-1 beta; [1]) is reported as 1948.5 pg/mL and the “conc/live cell (CCL4/MIP-1 beta)” value (CCL4/MIP-1 beta; [1]) is reported as 304.4 pg/10^5 and 0.0 pg/10^5. For the same compound, the “Concentration (CCL4/MIP-1 beta)” value (CCL4/MIP-1 beta; test article 100 uM, Mean) was 1360.7 pg/mL, the “conc/live cell (CCL4/MIP-1 beta)” value (CCL4/MIP-1 beta; test article 100 uM, Mean) was 207.4 pg/10^5 and the “MFI (Bead name: CCL4/MIP-1 beta)” value (CCL4/MIP-1 beta; test article 100 uM, Mean) was 6.5. The “MFI (Bead name: CCL4/MIP-1 beta)” value (CCL4/MIP-1 beta; [2]) was 10.0 and 3.0, the “Concentration (CCL4/MIP-1 beta)” value (CCL4/MIP-1 beta; [2]) was 1948.5 pg/mL and 772.9 pg/mL and the “conc/live cell (CCL4/MIP-1 beta)” value (CCL4/MIP-1 beta; [2]) was 304.4 pg/10^5 and 110.4 pg/10^5. For the same compound, the Concentration (CCL2/JE/MCP-1; [3]) was 3936.7 pg/mL, the conc/live cell (CCL2/JE/MCP-1; [3]) was 612.8 pg/10^5 and the Concentration (CCL2/JE/MCP-1; [4]) was 3765.3 pg/mL and 3838.5 pg/mL and 4206.2 pg/mL. The conc/live cell (CCL2/JE/MCP-1; [4]) was 660.6 pg/10^5 and 540.6 pg/10^5 and 637.3 pg/10^5, the Concentration (CCL2/JE/MCP-1; [5]) was 4029.1 pg/mL and the conc/live cell (CCL2/JE/MCP-1; [5]) was 653.6 pg/10^5. The Concentration (CCL2/JE/MCP-1; [6]) was 4143.7 pg/mL and 4045.9 pg/mL and 3897.7 pg/mL, the conc/live cell (CCL2/JE/MCP-1; [6]) was 647.5 pg/10^5 and 674.3 pg/10^5 and 639.0 pg/10^5 and the Concentration (CCL2/JE/MCP-1; [7]) was 3583.8 pg/mL. The conc/live cell (CCL2/JE/MCP-1; [7]) was 616.4 pg/10^5, the Concentration (CCL2/JE/MCP-1; [8]) was 3601.3 pg/mL and 3708.0 pg/mL and 3442.0 pg/mL and the conc/live cell (CCL2/JE/MCP-1; [8]) was 580.9 pg/10^5 and 713.1 pg/10^5 and 555.2 pg/10^5. The Concentration (CCL2/JE/MCP-1; [9]) was 4023.9 pg/mL, the conc/live cell (CCL2/JE/MCP-1; [9]) was 619.0 pg/10^5 and the Concentration (CCL2/JE/MCP-1; [10]) was 3902.2 pg/mL and 3911.6 pg/mL and 4257.8 pg/mL. For the same compound, the conc/live cell (CCL2/JE/MCP-1; [10]) was 619.4 pg/10^5 and 550.9 pg/10^5 and 686.7 pg/10^5, the Concentration (CCL2/JE/MCP-1; [11]) was 3459.8 pg/mL and the conc/live cell (CCL2/JE/MCP-1; [11]) was 524.3 pg/10^5. For the same compound, the Concentration (CCL2/JE/MCP-1; [12]) was 3308.6 pg/mL and 3697.4 pg/mL and 3373.4 pg/mL, the conc/live cell (CCL2/JE/MCP-1; [12]) was 551.4 pg/10^5 and 577.7 pg/10^5 and 443.9 pg/10^5 and the Concentration (CCL2/JE/MCP-1; [13]) was 598.6 pg/mL. For the same compound, the conc/live cell (CCL2/JE/MCP-1; [13]) was 104.2 pg/10^5, the Concentration (CCL2/JE/MCP-1; [14]) was 541.0 pg/mL and 629.1 pg/mL and 625.5 pg/mL and the conc/live cell (CCL2/JE/MCP-1; [14]) was 85.9 pg/10^5 and 101.5 pg/10^5 and 125.1 pg/10^5. For the same compound, the Concentration (CCL2/JE/MCP-1; [15]) was 3382.2 pg/mL, the conc/live cell (CCL2/JE/MCP-1; [15]) was 692.4 pg/10^5 and the Concentration (CCL2/JE/MCP-1; [16]) was 1522.2 pg/mL and 5242.2 pg/mL. The conc/live cell (CCL2/JE/MCP-1; [16]) was 292.7 pg/10^5 and 1092.1 pg/10^5, the Concentration (CCL2/JE/MCP-1; [17]) was 2047.1 pg/mL and the conc/live cell (CCL2/JE/MCP-1; [17]) was 389.7 pg/10^5. For the same compound, the Concentration (CCL2/JE/MCP-1; [18]) was 1338.6 pg/mL and 2755.6 pg/mL, the conc/live cell (CCL2/JE/MCP-1; [18]) was 304.2 pg/10^5 and 475.1 pg/10^5 and the Concentration (CCL2/JE/MCP-1; [19]) was 1790.1 pg/mL. For the same compound, the conc/live cell (CCL2/JE/MCP-1; [19]) was 325.5 pg/10^5, the Concentration (CCL2/JE/MCP-1; [20]) was 1471.3 pg/mL and 2108.8 pg/mL and the conc/live cell (CCL2/JE/MCP-1; [20]) was 267.5 pg/10^5 and 383.4 pg/10^5. For the same compound, the Concentration (CCL2/JE/MCP-1; [21]) was 7729.5 pg/mL, the conc/live cell (CCL2/JE/MCP-1; [21]) was 1218.8 pg/10^5 and the Concentration (CCL2/JE/MCP-1; [22]) was 12584.2 pg/mL and 2874.9 pg/mL. The conc/live cell (CCL2/JE/MCP-1; [22]) was 1966.3 pg/10^5 and 471.3 pg/10^5, the Concentration (CCL2/JE/MCP-1; [23]) was 1095.4 pg/mL and the conc/live cell (CCL2/JE/MCP-1; [23]) was 165.8 pg/10^5. For the same compound, the Concentration (CCL2/JE/MCP-1; [24]) was 1394.1 pg/mL and 796.7 pg/mL and the conc/live cell (CCL2/JE/MCP-1; [24]) was 217.8 pg/10^5 and 113.8 pg/10^5.

From patent US20230146455A1, “TREATMENT OF INFLAMMATORY DISEASES WITH PEPTIDES AND PHARMACEUTICAL COMPOSITIONS” (Yuyu Pharma, Inc., priority 2020, published 2023)
